Here are results for two compounds from patent US12370200B2, “Pharmaceutical composition containing brexanolone, ganaxolone, or zuranolone, and use thereof” (Brii Biosciences, Inc., priority 2019, dated 2025).

For data set [1] the following is noted: human plasma, after oral administration; cited from earlier work.
Data set [2] can be described thus: Solubility of brexanolone by visual assessment of dissolution in various solvents. Format: physicochemical. The conditions noted are these: for solubility / solubility at 1 h: thermodynamic from solid; for solubility at 1 h: 40° C. for 1 h. The protocol: Solubility of the supplied brexanolone was determined by visual assessment of dissolution in various solvents at RT (˜22° C.) and 40° C. Aliquots of solvent were added to a fixed amount of brexanolone (˜10 mg) at room temperature until the dissolution point or a maximum volume of 1.8 mL was reached. All samples were then heated to 40° C. for 1 h and dissolution was observed. As shown in Error!

Converted amounts (≈) assume the structure as drawn. Like-named read-outs stand apart in the source and are kept apart here.

For `CC(=O)[C@H]1CC[C@H]2[C@@H]3CC[C@H]4C[C@](C)(O)CC[C@]4(C)[C@H]3CC[C@]12C` [Ganaxolone, ganaxolone], the half-life entry in data set [1] is given as “approximately 20 hours”.

As a reminder, the solubility is how much of the substance goes into solution per volume. The Solubility is the dissolved amount per volume that the medium holds. A high value points to a readily soluble substance. Consider `CC(=O)[C@H]1CC[C@H]2[C@@H]3CC[C@H]4C[C@H](O)CC[C@]4(C)[C@H]3CC[C@]12C` [brexanolone], for which the solubility in data set [2] (22 °C, organic solvent or mixture, RT, in MeCN, IPE, MTBE, IPA, MeOH, IPA:water (9:1, v:v), toluene, DMSO, EtOAc (span over these solvents), read-out: moderate solubility at RT) was 6 to 52 mg/mL (≈ 18.8 to 163 mM); in data set [2] (22 °C, organic solvent or mixture, RT, in THF and DCM, read-out: high solubility at RT) it was more than 96 mg/mL; in data set [2] (organic solvent or mixture, solvent 2-Propanol (IPA), RT (~22° C.), read-out: Solubility at RT) it was 19 to 49 mg/mL (≈ 59.7 to 154 mM); in data set [2] (organic solvent or mixture, solvent 2-Propanol:water (9:1, v:v), RT (~22° C.), read-out: Solubility at RT) it was 20 to 51 mg/mL (≈ 62.8 to 160 mM); in data set [2] (organic solvent or mixture, solvent Acetonitrile (MeCN), RT (~22° C.), read-out: Solubility at RT), 6 to 10 mg/mL (≈ 18.8 to 31.4 mM); in data set [2] (organic solvent or mixture, solvent Dichloromethane (DCM), RT (~22° C.), read-out: Solubility at RT), 108 to 432 mg/mL (≈ 339 to 1360 mM). In addition, the solubility in data set [2] (organic solvent or mixture, solvent Dimethyl sulfoxide (DMSO), RT (~22° C.), read-out: Solubility at RT) is 20 to 49 mg/mL (≈ 62.8 to 154 mM); in data set [2] (organic solvent or mixture, solvent Ethyl Acetate (EtOAc), RT (~22° C.), read-out: Solubility at RT), 21 to 52 mg/mL (≈ 65.9 to 163 mM); in data set [2] (organic solvent or mixture, solvent Isopropyl ether (IPE), RT (~22° C.), read-out: Solubility at RT), 6 to 11 mg/mL (≈ 18.8 to 34.5 mM); in data set [2] (organic solvent or mixture, solvent Methanol (MeOH), RT (~22° C.), read-out: Solubility at RT), 19 to 49 mg/mL (≈ 59.7 to 154 mM); in data set [2] (organic solvent or mixture, solvent Methyl t-butyl ether (MTBE), RT (~22° C.), read-out: Solubility at RT), 10 to 20 mg/mL (≈ 31.4 to 62.8 mM); in data set [2] (organic solvent or mixture, solvent Tetrahydrofuran (THF), RT (~22° C.), read-out: Solubility at RT), 96 to 384 mg/mL (≈ 301 to 1210 mM). Moreover, the solubility is 20 to 50 mg/mL (≈ 62.8 to 157 mM) in data set [2] (organic solvent or mixture, solvent Toluene, RT (~22° C.), read-out: Solubility at RT) and less than 6 mg/mL in data set [2] (solvent Water, RT (~22° C.), read-out: Solubility at RT). Also, the solubility at 1 h is more than 19 mg/mL in data set [2] (organic solvent or mixture, solvent 2-Propanol (IPA)); more than 20 mg/mL in data set [2] (organic solvent or mixture, solvent 2-Propanol:water (9:1, v:v)); more than 6 mg/mL in data set [2] (organic solvent or mixture, solvent Acetonitrile (MeCN)); more than 108 mg/mL in data set [2] (organic solvent or mixture, solvent Dichloromethane (DCM)); more than 20 mg/mL in data set [2] (organic solvent or mixture, solvent Dimethyl sulfoxide (DMSO)); more than 21 mg/mL in data set [2] (organic solvent or mixture, solvent Ethyl Acetate (EtOAc)). Further, the solubility at 1 h in data set [2] (organic solvent or mixture, solvent Isopropyl ether (IPE)) is more than 6 mg/mL; in data set [2] (organic solvent or mixture, solvent Methanol (MeOH)), more than 19 mg/mL; in data set [2] (organic solvent or mixture, solvent Methyl t-butyl ether (MTBE)), more than 10 mg/mL; in data set [2] (organic solvent or mixture, solvent Tetrahydrofuran (THF)) it was more than 96 mg/mL; in data set [2] (organic solvent or mixture, solvent Toluene) it was more than 20 mg/mL; in data set [2] (solvent Water) it was less than 6 mg/mL. Further, in data set [2] (solvent Water, RT (~22° C.)), the “Solubility at RT” value is given as less than 6 mg/mL.
